Results taken from US11957665B1, “Pharmaceutical composition for preventing or treating alopecia areata acting as a functional antagonist for S1PR1 and S1PR4” (NEXTGEN BIOSCIENCE CO., LTD., priority 2022, dated 2024).
pIC50: −log10 of the molar value.

Assays:
[1] = test system: T cells, CD4 T cells, CD8 T cells; assay: Inhibitory effect of NXC736 on rat immune cells (flow cytometry of lymphocytes in peripheral blood and bone marrow); assay type: in vivo, SD rats; details: 10 mg/kg oral once, PB
Experimental: To evaluate the effect of NXC736 on rat immune cells, NXC736 was administered orally once at 10 mg/kg/day to SD rats (Daehan BioLink (DBL), 3 control groups, and 15 test groups), and then measurements were performed by classifying into T cells, CD4 T cells, and CD8 T cells in peripheral bloodstream (PB) and bone marrow (BM) using the same antibodies as in Experimental Example 1. Specifically, measurements were made using a flow cytometer (FC500, Beckman coulter) at 0, 4, 8, 12, 24, 36, and 48 hours after administration of the test substance, the analysis was performed using FlowJo™ V10 (Flowjo, LLC), and the numbers of T cells, CD4 T cells, and CD8 T cells were expressed as % of control based on time 0.

[2] = test system: beagle dogs; assay: Effect on the cardiovascular system (heart rate, general symptoms) in beagle dogs; assay type: in vivo
Experimental: NXC736 was orally administered to four unanesthetized and unrestrained male beagle dogs (ORIENTBIO Inc., Republic of Korea) implanted with remote transmitters. Afterwards, the heart rate of four beagle dogs was measured to evaluate the effect of NXC736 on the cardiovascular system, and the occurrence of abnormal symptoms was visually checked.
In this experiment, 4 beagle dogs were administered with 0.5% MC aqueous solution, which is an excipient, as a control substance, and the heart rate was measured, and after 1 week, NXC736 was administered at 12.5 mg/kg and the heart rate was measured, after 1 week, NXC736 was administered at 25 mg/kg and the heart rate was measured, and after 1 week, NXC736 was administered at 50 mg/kg and the heart rate was measured.
The heart rate of beagle dogs was specifically measured at 0 hours before administration of the test substance, and 0.5 hours, 1 hour, 2 hours, 3 hours, 4 hours, 6 hours, 8 hours, 12 hours, and 24 hours after administration of the test substance.

[3] = target: T1, hERG potassium ion channel (Homo sapiens, UniProt Q12809); assay: cell-based
T1 sequence (Q12809 whole entry): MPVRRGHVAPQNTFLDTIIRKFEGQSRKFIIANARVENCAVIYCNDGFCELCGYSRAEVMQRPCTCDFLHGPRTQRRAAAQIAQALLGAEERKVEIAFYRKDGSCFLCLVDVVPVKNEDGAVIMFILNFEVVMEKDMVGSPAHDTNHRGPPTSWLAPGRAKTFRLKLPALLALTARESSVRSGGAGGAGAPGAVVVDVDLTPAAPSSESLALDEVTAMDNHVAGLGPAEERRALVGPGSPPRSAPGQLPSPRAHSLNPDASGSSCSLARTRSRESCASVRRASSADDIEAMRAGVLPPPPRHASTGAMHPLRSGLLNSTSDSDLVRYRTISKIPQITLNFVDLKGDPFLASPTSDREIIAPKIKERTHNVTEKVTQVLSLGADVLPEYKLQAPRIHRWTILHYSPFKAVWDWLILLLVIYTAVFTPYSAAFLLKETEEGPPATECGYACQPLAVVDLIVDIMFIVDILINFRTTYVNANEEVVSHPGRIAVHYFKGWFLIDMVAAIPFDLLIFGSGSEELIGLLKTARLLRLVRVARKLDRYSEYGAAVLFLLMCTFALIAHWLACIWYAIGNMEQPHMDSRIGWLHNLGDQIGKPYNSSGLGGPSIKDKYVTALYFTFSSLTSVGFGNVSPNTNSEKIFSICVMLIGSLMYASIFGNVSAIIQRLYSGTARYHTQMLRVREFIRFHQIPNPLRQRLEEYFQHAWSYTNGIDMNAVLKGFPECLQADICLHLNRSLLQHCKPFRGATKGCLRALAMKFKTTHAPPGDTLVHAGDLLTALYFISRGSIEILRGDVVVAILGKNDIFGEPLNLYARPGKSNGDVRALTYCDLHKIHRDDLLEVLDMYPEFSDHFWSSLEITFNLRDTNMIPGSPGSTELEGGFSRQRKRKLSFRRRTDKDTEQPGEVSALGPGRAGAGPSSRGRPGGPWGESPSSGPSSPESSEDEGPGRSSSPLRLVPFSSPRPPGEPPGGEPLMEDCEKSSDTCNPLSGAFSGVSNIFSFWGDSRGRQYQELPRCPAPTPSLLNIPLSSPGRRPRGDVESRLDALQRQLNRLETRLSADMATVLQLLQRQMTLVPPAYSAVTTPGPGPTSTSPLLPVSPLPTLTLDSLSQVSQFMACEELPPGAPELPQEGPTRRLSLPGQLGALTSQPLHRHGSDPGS

[4] = target: T1, hERG potassium ion channel; assay: Effect on hERG channel currents in HEK-293 cells overexpressing the hERG gene
[5] = test system: alopecia areata mouse model C3H/HeJ; assay: Efficacy in suppressing alopecia areata in C3H/HeJ alopecia areata mouse model; assay type: in vivo, C3H/HeJ mice
Experimental: The effectiveness of NXC736 for alopecia areata was evaluated using the alopecia areata mouse model C3H/HeJ (Jackson Lab, Saeron Bio). […] Conditions for the animal breeding room include a temperature of 23±3° C., relative humidity of 50±10%, and day and night maintained at 12-hour intervals, and experimental animals were raised in isolation breeding boxes (ThreeShine), and fed with food and drinking water for experimental animals ad libitum.
Mice were divided into two groups: the control group (sterilized distilled water administration group) and the NXC736 administration experimental group, five C3H/HeJ mice were randomly assigned per group, and from the time point lymph node cells were proliferated and injected into C3H/HeJ mice aged 10 to 16 weeks where no alopecia was induced, NXC736 was orally administered at 30 mg/kg for the NXC736 administration group and the same volume of sterilized distilled water was orally administered for the control group for 12 weeks once a day at the same time, respectively, and then the area of alopecia areata (AA) lesion area and disease free ratio were measured at intervals of 2 weeks.
The alopecia areata lesion area was measured using the Image J program (Version 1.44p) after taking a photograph.
The disease free ratio was defined as the proportion of mice administered the drug and not showing alopecia symptoms at a specified time point.

[6] = test system: T cells, CD4 T cells, CD8 T cells; assay: Inhibitory effect of NXC736 on mouse immune cells (flow cytometry of lymphocytes in peripheral blood and bone marrow); assay type: in vivo, C57BL/6 mice; details: 3 mg/kg oral once
Experimental: To determine whether NXC736, which acts on the S1P receptor, also has an effect on lymphocyte reduction, the effect of NXC736 on immune cells was evaluated. After oral administration of NXC736 once at 3 mg/kg/day to C57BL/6 mice (Daehan BioLink (DBL), 4 mice in the control group and 18 mice in the test group), the change in lymphocytes in peripheral blood (PB), bone marrow (BM) was measured by classifying into T cells (using anti-mouse CD3ε-PE/cyanine7 antibody), CD4 T cells (using anti-mouse CD4-FITC antibody), and CD8 T cells (using anti-mouse CD8a-PerCP antibody). Specifically, measurements were made using a flow cytometer (FC500, Beckman coulter) at 0, 4, 8, 12, 24, and 36 hours after administration of the test substance, the analysis was performed using FlowJo™ V10 (Flowjo, LLC), and the numbers of T cells, CD4 T cells, and CD8 T cells were expressed as % of control based on time 0.

## CCCCCCCCCCn1cc(CCC(N)(CO)CO)nn1 [NXC736, 2-amino-2-(2-(1-decyl-1H-1,2,3-triazol-4-yl)ethyl)propane-1,3-diol]
[1]
  time for which the immunosuppressive effect was maintained: up to 24 hours
[2]; oral doses of 12.5, 25 and 50 mg/kg, 0-24 hours
  heart rate: no change in heart rate
[2]; oral doses of 12.5, 25 or 50 mg/kg
  general symptoms, naked eye: no abnormal symptoms were observed
[3]
  pIC50: 4.89
[4]
  hERG potassium channel activity, conclusion: does not inhibit hERG potassium channel activity
[5]; 30 mg/kg oral once a day
  time to observe 100% alopecia areata (disease free ratio): up to 84 days
[5]; 30 mg/kg oral once a day for 12 weeks
  alopecia areata (AA) lesion area: approximately 10%
[6]
  time until which the decrease of T cells in PB was maintained: ≤ 12 h
[6]; at 36 hours
  T cells in PB after recovery (% of control): 88.9%
